Structures are written as SMILES.

In assay [1] the test system is SK-Br3 breast cancer cell line. As to the kind of experiment: Cancer cell growth inhibition, SK-Br3 (SRB). The conditions noted are these: Homo sapiens, SK-BR-3, 72 h, read-out: ID50 (nM) SK-Br3.
Assay [2] has as its system A431 skin cancer cell line. In words: Cancer cell growth inhibition, A431 (SRB). Conditions: Homo sapiens, A-431, 72 h, read-out: ID50 (nM) A431.

As to `COc1cc2ncnc(Nc3ccc(F)c(Cl)c3F)c2cc1OC1CCN(C(=O)/C=C/C(=O)NO)CC1` [Example 88, (E)-4-(4-(4-(3-chloro-2,4-difluorophenylamino)-7-methoxyquinazolin-6-yloxy)piperidin-1-yl)-N-hydroxy-4-oxobut-2-enamide], the figures for the IC50 in assay [1] and in assay [2] were > 1000 nM and 187 nM, respectively.

As for `COc1cc2ncnc(Nc3ccc(Cl)c(Cl)c3F)c2cc1OC1CCN(C(=O)/C=C\Cl)CC1` [Example 89, (Z)-3-chloro-1-(4-(4-(3,4-dichloro-2-fluorophenylamino)-7-methoxyquinazolin-6-yloxy)piperidin-1-yl)prop-2-en-1-one], the IC50 in assay [1] was determined as 85 nM; in assay [2], 14 nM.

For the compound `COc1cc2ncnc(Nc3ccc(Cl)c(Cl)c3F)c2cc1OC1CCN(C(=O)/C=C/Cl)CC1` [Example 90, (E)-3-chloro-1-(4-(4-(3,4-dichloro-2-fluorophenylamino)-7-methoxyquinazolin-6-yloxy)piperidin-1-yl)prop-2-en-1-one], the IC50 turned out to be 13 nM in assay [1] and 39 nM in assay [2].

`C=C(NC(C)=O)C(=O)N1CCC(Oc2cc3c(Nc4ccc(Cl)c(Cl)c4F)ncnc3cc2OC)CC1` [Example 91, N-(3-(4-(4-(3,4-dichloro-2-fluorophenylamino)-7-methoxyquinazolin-6-yloxy)piperidin-1-yl)-3-oxoprop-1-en-2-yl)acetamide]: the IC50 stood at 194 nM in assay [1] and 50 nM in assay [2].

Regarding `COc1cc2ncnc(Nc3ccc(F)c(Cl)c3F)c2cc1O[C@H]1CCN(C(=O)/C=C/CN(C)C)C1` [Example 92, (E)-1-((3S)-3-(4-(3-chloro-2,4-difluorophenylamino)-7-methoxyquinazolin-6-yloxy)pyrrolidin-1-yl)-4-(dimethylamino)but-2-en-1-one], the values for the IC50 in assay [1] and in assay [2] were 8 nM and 4 nM, respectively.

Turning to `CCN(CC)C/C=C/C(=O)N1CC[C@H](Oc2cc3c(Nc4ccc(F)c(Cl)c4F)ncnc3cc2OC)C1` [Example 93, (E)-1-((3S)-3-(4-(3-chloro-2,4-difluorophenylamino)-7-methoxyquinazolin-6-yloxy)pyrrolidin-1-yl)-4-(diethylamino)but-2-en-1-one], the values for the IC50 in assay [1] and in assay [2] were 40 nM and 28 nM, respectively.

Consider `COc1cc2ncnc(Nc3ccc(F)c(Cl)c3F)c2cc1O[C@H]1CCN(C(=O)/C=C/CN2CCOCC2)C1` [Example 94, (E)-1-((3S)-3-(4-(3-chloro-2,4-difluorophenylamino)-7-methoxyquinazolin-6-yloxy)pyrrolidin-1-yl)-4-morpholinobut-2-en-1-one], for which the IC50 in assay [1] was determined as 123 nM; in assay [2] it was 85 nM.

Regarding `COc1cc2ncnc(Nc3ccc(F)c(Cl)c3F)c2cc1O[C@H]1CCN(C(=O)/C=C/CN2CCCC2)C1` [Example 95, (E)-1-((3S)-3-(4-(3-chloro-2,4-difluorophenylamino)-7-methoxyquinazolin-6-yloxy)pyrrolidin-1-yl)-4-(pyrrolidin-1-yl)but-2-en-1-one], the results for the IC50 in assay [1] and in assay [2] were 23 nM and 8 nM, respectively.

For `COc1cc2ncnc(Nc3cccc(Cl)c3F)c2cc1O[C@H]1CCN(C(=O)/C=C/CN(C)C)C1` [Example 96, (E)-1-((3S)-3-(4-(3-chloro-2-fluorophenylamino)-7-methoxyquinazolin-6-yloxy)pyrrolidin-1-yl)-4-(dimethylamino)but-2-en-1-one], the IC50 is 46 nM in assay [1] and 8 nM in assay [2].

For `CN(C)C/C=C/C(=O)N1CC[C@H](Oc2ccc3ncnc(Nc4ccc(F)c(Cl)c4F)c3c2)C1` [Example 97, (E)-1-((3S)-3-(4-(3-chloro-2,4-difluorophenylamino)quinazolin-6-yloxy)pyrrolidin-1-yl)-4-(dimethylamino)but-2-en-1-one], the results for the IC50 in assay [1] and in assay [2] were 94 nM and 25 nM, respectively.

Take `COc1cc2ncnc(Nc3ccc(Cl)c(Cl)c3F)c2cc1OC1CCN(C(=O)/C=C/CN(C)C)CC1` [Example 99, (E)-1-(4-(4-(3,4-dichloro-2-fluorophenylamino)-7-methoxyquinazolin-6-yloxy)piperidin-1-yl)-4-(dimethylamino)but-2-en-1-one]: the values for the IC50 in assay [1] and in assay [2] were 39 nM and 165 nM, respectively.

On to `COc1cc2ncnc(Nc3cccc(Cl)c3F)c2cc1OC1CCN(C(=O)/C=C/CN(C)C)CC1` [Example 100, (E)-1-(4-(4-(3-chloro-2-fluorophenylamino)-7-methoxyquinazolin-6-yloxy)piperidin-1-yl)-4-(dimethylamino)but-2-en-1-one], for which the IC50 in assay [1] worked out at 15 nM; in assay [2], 76 nM.

Consider `COc1cc2ncnc(Nc3ccc(F)c(Cl)c3F)c2cc1OC1CN(C(=O)/C=C/CN(C)C)C1` [Example 101, (E)-1-(3-(4-(3-chloro-2,4-difluorophenylamino)-7-methoxyquinazolin-6-yloxy)azetidin-1-yl)-4-(dimethylamino)but-2-en-1-one], for which the IC50 in assay [1] came to 11 nM; in assay [2], 36 nM.

Regarding `COc1cc2ncnc(Nc3cccc(Cl)c3F)c2cc1OC1CN(C(=O)/C=C/CN(C)C)C1` [Example 102, (E)-1-(3-(4-(3-chloro-2-fluorophenylamino)-7-methoxyquinazolin-6-yloxy)azetidin-1-yl)-4-(dimethylamino)but-2-en-1-one], the results for the IC50 in assay [1] and in assay [2] were 8 nM and 9 nM, respectively.

For `COc1cc2ncnc(Nc3ccc(F)c(Cl)c3F)c2cc1OCCNC(=O)/C=C/CN(C)C` [Example 103, (E)-N-(2-(4-(3-chloro-2,4-difluorophenylamino)-7-methoxyquinazolin-6-yloxy)ethyl)-4-(dimethylamino)but-2-enamide], the IC50 was 7 nM in assay [1] and 18 nM in assay [2].

As for `C=C(CN1CCN(C)CC1)C(=O)N1CC(Oc2cc3c(Nc4ccc(F)c(Cl)c4F)ncnc3cc2OC)C1` [Example 106, 1-(3-(4-(3-chloro-2,4-difluorophenylamino)-7-methoxyquinazolin-6-yloxy)azetidin-1-yl)-2-((4-methylpiperazin-1-yl)methyl)prop-2-en-1-one], the values for the IC50 in assay [1] and in assay [2] were 0.5 nM and 1 nM, respectively.

Consider `C=C(CN1CCCCC1)C(=O)N1CC(Oc2cc3c(Nc4cccc(Cl)c4F)ncnc3cc2OC)C1` [Example 107, 1-(3-(4-(3-chloro-2-fluorophenylamino)-7-methoxyquinazolin-6-yloxy)azetidin-1-yl)-2-(piperidin-1-ylmethyl)prop-2-en-1-one], for which the results for the IC50 in assay [1] and in assay [2] were 0.7 nM and 2.4 nM, respectively.

For the compound `C=C(CN1CCCCC1)C(=O)N1CC(Oc2cc3c(Nc4ccc(F)c(Cl)c4F)ncnc3cc2OC)C1` [Example 108, 1-(3-(4-(3-chloro-2,4-difluorophenylamino)-7-methoxyquinazolin-6-yloxy)azetidin-1-yl)-2-(piperidin-1-ylmethyl)prop-2-en-1-one], the IC50 in assay [1] was determined as 6 nM; in assay [2], 9.1 nM.

As to `C=C(CN(C)C)C(=O)N1CCC(Oc2cc3c(Nc4ccc(F)c(Cl)c4F)ncnc3cc2OC)CC1` [Example 109, 1-(4-(4-(3-chloro-2,4-difluorophenylamino)-7-methoxyquinazolin-6-yloxy)piperidin-1-yl)-2-((dimethylamino)methyl)prop-2-en-1-one], the IC50 in assay [1] is 3.5 nM; in assay [2], 2.7 nM.

As for `C=C(CN1CCOCC1)C(=O)N1CCC(Oc2cc3c(Nc4ccc(F)c(Cl)c4F)ncnc3cc2OC)CC1` [Example 110, 1-(4-(4-(3-chloro-2,4-difluorophenylamino)-7-methoxyquinazolin-6-yloxy)piperidin-1-yl)-2-(morpholinomethyl)prop-2-en-1-one], the results for the IC50 in assay [1] and in assay [2] were 30 nM and 10 nM, respectively.

Consider `C=C(CN(C)C)C(=O)N1CCC(Oc2cc3c(Nc4ccc(Cl)c(Cl)c4F)ncnc3cc2OC)CC1` [Example 111, 1-(4-(4-(3,4-dichloro-2-fluorophenylamino)-7-methoxyquinazolin-6-yloxy)piperidin-1-yl)-2-((dimethylamino)methyl)prop-2-en-1-one], for which the IC50 in assay [1] was 6 nM; in assay [2], 4 nM.

As for `COc1cc2ncnc(Nc3ccc(F)c(Cl)c3F)c2cc1OC1CN(C(=O)/C=C\CN(C)C)C1` [Example 112, (Z)-1-(3-(4-(3-chloro-2,4-difluorophenylamino)-7-methoxyquinazolin-6-yloxy)azetidin-1-yl)-4-(dimethylamino)but-2-en-1-one], the IC50 in assay [1] is 0.8 nM; in assay [2] it was 15 nM.

With `COc1cc2ncnc(Nc3ccc(F)c(Cl)c3F)c2cc1OC1CCN(C(=O)/C=C\CN(C)C)CC1` [Example 113, (Z)-1-(4-(4-(3-chloro-2,4-difluorophenylamino)-7-methoxyquinazolin-6-yloxy)piperidin-1-yl)-4-(dimethylamino)but-2-en-1-one], the IC50 in assay [1] stood at 17 nM; in assay [2], 6 nM.

In the case of `C=C(CO)C(=O)N1CCC(Oc2cc3c(Nc4ccc(Cl)c(Cl)c4F)ncnc3cc2OC)CC1` [Example 114, 1-(4-(4-(3,4-dichloro-2-fluorophenylamino)-7-methoxyquinazolin-6-yloxy)piperidin-1-yl)-2-(hydroxymethyl)prop-2-en-1-one], the IC50 in assay [1] worked out at 274 nM; in assay [2] it was 44 nM.

As for `C=CC(=O)N1CC(Oc2cc3c(Nc4ccc(F)c(Cl)c4F)ncnc3cc2O)C1` [Example 115, 1-(3-(4-(3-chloro-2,4-difluorophenylamino)-7-hydroxyquinazolin-6-yloxy)azetidin-1-yl)prop-2-en-1-one], the results for the IC50 in assay [1] and in assay [2] were 93 nM and 381 nM, respectively.

With `C=CC(=O)N1CC(Oc2cc3c(Nc4ccc(F)c(Cl)c4F)ncnc3cc2OCCOC)C1` [Example 116, 1-(3-(4-(3-chloro-2,4-difluorophenylamino)-7-(2-methoxyethoxy)quinazolin-6-yloxy)azetidin-1-yl)prop-2-en-1-one], the IC50 in assay [1] is 327 nM; in assay [2], 883 nM.

For `C=CC(=O)N1CCC(Oc2cc3c(Nc4ccc(F)c(Cl)c4F)ncnc3cc2OCCCN2CCOCC2)CC1` [Example 118, 1-(4-(4-(3-chloro-2,4-difluorophenylamino)-7-(3-morpholinopropoxy)quinazolin-6-yloxy)piperidin-1-yl)prop-2-en-1-one], the IC50 was 2 nM in assay [1] and 4 nM in assay [2].

Source of the values: patent US8188102B2, “Amide derivative for inhibiting the growth of cancer cells” (Hanmi Holdings Co., Ltd., priority 2007, dated 2012).
